Experimental data as given in ChEMBL document CHEMBL1136572, “Piperazine-based CCR5 antagonists as HIV-1 inhibitors. III: synthesis, antiviral and pharmacokinetic profiles of symmetrical heteroaryl carboxamides” (Bioorg Med Chem Lett, 2003).
pIC50, pKi: −log10 of the molar value.

Tests used:
[1] = tested on: BaF3; test: Inhibition of 0.1 nM of MIP-1beta induced migration of recombinant mouse pro-B cell line BA/F3 expressing human CCR5; assay type: functional, cell-based
[2] = target: C-C chemokine receptor type 5 (Homo sapiens, UniProt P51681); test: Ability to inhibit [125I]-labeled RANTES binding to the CCR5 receptor expressed in membrane preparations from CHO cells; assay type: cell membranes
C-C chemokine receptor type 5, sequence (P51681 whole entry): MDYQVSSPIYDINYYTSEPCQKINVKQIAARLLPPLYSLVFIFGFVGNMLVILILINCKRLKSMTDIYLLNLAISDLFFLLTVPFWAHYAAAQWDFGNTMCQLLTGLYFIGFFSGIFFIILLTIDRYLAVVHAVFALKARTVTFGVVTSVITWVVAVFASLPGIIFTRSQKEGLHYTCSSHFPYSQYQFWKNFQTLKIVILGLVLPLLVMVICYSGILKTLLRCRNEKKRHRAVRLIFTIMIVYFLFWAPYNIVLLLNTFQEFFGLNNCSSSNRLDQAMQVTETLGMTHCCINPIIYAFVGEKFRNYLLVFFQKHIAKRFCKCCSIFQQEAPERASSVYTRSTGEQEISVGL

[3] = tested on: U-87 MG; test: Compound was tested for inhibiting HIV (ADA) entry into cells; Range is 0.2-2.0 nM; assay type: functional, cell-based, U-87MG ATCC; settings: Homo sapiens
[4] = target: T1, Muscarinic acetylcholine receptor M2 (Homo sapiens, UniProt P08172); test: Binding affinity towards muscarinic receptor M2
T1 sequence (P08172 whole entry): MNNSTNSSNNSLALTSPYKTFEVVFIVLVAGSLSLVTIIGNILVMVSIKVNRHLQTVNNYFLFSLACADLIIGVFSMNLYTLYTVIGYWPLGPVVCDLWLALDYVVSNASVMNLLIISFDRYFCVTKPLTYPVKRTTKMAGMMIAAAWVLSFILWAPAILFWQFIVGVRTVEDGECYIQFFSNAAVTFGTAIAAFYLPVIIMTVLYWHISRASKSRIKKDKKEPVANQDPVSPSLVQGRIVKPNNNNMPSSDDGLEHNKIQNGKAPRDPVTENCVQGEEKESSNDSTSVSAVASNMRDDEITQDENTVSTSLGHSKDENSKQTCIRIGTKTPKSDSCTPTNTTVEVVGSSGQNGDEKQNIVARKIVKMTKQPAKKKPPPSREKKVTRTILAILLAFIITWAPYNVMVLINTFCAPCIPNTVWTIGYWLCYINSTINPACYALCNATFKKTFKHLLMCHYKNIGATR

[5] = tested on: U-87 MG; test: Tested for inhibiting HIV (ADA) entry into cells; assay type: functional, cell-based, U-87MG ATCC; settings: Homo sapiens
[6] = Oral bioavailability evaluated in monkey; assay type: ADME, organism-based; settings: cercopithecidae, in vivo
[7] = Cmax value evaluated in monkey; assay type: ADME, organism-based; settings: cercopithecidae, in vivo
[8] = Oral bioavailability evaluated in rat; assay type: ADME, organism-based; settings: in vivo
[9] = Ratio of AUCbrain to AUCplasma; assay type: ADME, organism-based; settings: rat, brain and plasma
[10] = Cmax value evaluated in rat; assay type: ADME, organism-based; settings: in vivo
[11] = target: T1, Muscarinic acetylcholine receptor M2; test: Inhibition of binding affinity to muscarinic receptor M2
[12] = Compound was tested for inhibition of HIV isolate bal (hz) in peripheral blood mononuclear cells (PBMC); assay type: functional
[13] = Compound was tested for inhibition of HIV isolate 301657 (hz) in peripheral blood mononuclear cells (PBMC); assay type: functional
[14] = Compound was tested for inhibition of HIV isolate 301657 (wt) in peripheral blood mononuclear cells (PBMC); assay type: functional
[15] = Compound was tested for inhibition of HIV isolate ASM 108 (hz) in peripheral blood mononuclear cells (PBMC); assay type: functional
[16] = Compound was tested for inhibition of HIV isolate BCF01 in peripheral blood mononuclear cells (PBMC); assay type: functional
[17] = Compound was tested for inhibition of HIV isolate JV 1083 in peripheral blood mononuclear cells (PBMC); assay type: functional
[18] = Compound was tested for inhibition of HIV isolate US-1 in peripheral blood mononuclear cells (PBMC); assay type: functional
[19] = Compound was tested for inhibition of HIV isolate YU-2 (wt) in peripheral blood mononuclear cells (PBMC); assay type: functional
[20] = Compound was tested for inhibition of HIV isolate ASM 108 (wt) in peripheral blood mononuclear cells (PBMC); assay type: functional
[21] = Compound was tested for inhibition of HIV isolate YU-2 (hz) in peripheral blood mononuclear cells (PBMC); assay type: functional
[22] = target: T2, Muscarinic acetylcholine receptor M1 (Homo sapiens, UniProt P11229); test: Binding affinity towards muscarinic receptor M1
T2 sequence (P11229 whole entry): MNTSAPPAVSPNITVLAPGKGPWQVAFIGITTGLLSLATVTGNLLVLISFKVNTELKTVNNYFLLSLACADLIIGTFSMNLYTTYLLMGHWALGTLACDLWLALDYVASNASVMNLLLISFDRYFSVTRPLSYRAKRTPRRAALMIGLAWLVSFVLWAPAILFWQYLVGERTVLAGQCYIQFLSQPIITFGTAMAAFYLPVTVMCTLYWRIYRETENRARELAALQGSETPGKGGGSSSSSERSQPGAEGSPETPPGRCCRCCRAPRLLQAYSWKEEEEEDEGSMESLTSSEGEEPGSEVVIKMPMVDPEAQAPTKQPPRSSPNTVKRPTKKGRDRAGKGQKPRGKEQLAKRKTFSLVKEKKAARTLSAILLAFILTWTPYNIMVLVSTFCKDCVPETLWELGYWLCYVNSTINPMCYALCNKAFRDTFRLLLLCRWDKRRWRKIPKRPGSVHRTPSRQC

[23] = tested on: Rattus norvegicus; test: Dose required for observing CNS and GI effects in rats after peroral administration; assay type: functional
[24] = tested on: Rattus norvegicus; test: Dose required for observing cardiovascular effects in rats after peroral administration; assay type: functional, Heart
[25] = tested on: U-87 MG; test: Compound was tested for inhibiting HIV (ADA) entry into U-87 cells; range is 2-20 nM; assay type: functional, cell-based, U-87MG ATCC; settings: Homo sapiens

Cc1ccnc(C)c1C(=O)N1CCC(C)(N2CCN([C@@H](C)c3ccc(C(F)(F)F)cc3)[C@@H](C)C2)CC1
pIC50 [1]: 10.52
pKi [2]: 8.70
pIC50 [3]: 9.70

Cc1cncc(C)c1C(=O)N1CCC(C)(N2CCN([C@@H](C)c3ccc(C(F)(F)F)cc3)[C@@H](C)C2)CC1
pKi [2]: 8.28
pKi [4]: 5.78

Cc1nc(N)nc(C)c1C(=O)N1CCC(C)(N2CCN([C@@H](C)c3ccc(C(F)(F)F)cc3)[C@@H](C)C2)CC1
pKi [2]: 7.42
pKi [4]: 5.96

COc1nc(C)c(C(=O)N2CCC(C)(N3CCN([C@@H](C)c4ccc(C(F)(F)F)cc4)[C@@H](C)C3)CC2)c(C)n1
pKi [2]: 7.96
pKi [4]: 6.69

C[C@H]1CN(C2(C)CCN(C(=O)c3c(Cl)cncc3Cl)CC2)CCN1[C@@H](C)c1ccc(C(F)(F)F)cc1
pKi [2]: 9.15
pKi [4]: 5.69
pIC50 [5]: 9.52

Cc1c[n+]([O-])cc(C)c1C(=O)N1CCC(C)(N2CCN([C@@H](C)c3ccc(C(F)(F)F)cc3)[C@@H](C)C2)CC1
pKi [2]: 7.74
pKi [4]: 6.59
pIC50 [5]: 9.05

Cc1ncnc(C)c1C(=O)N1CCC(C)(N2CCN([C@@H](C)c3ccc(C(F)(F)F)cc3)[C@@H](C)C2)CC1
bioavailability [6]: 50%
Cmax [7]: 340 ng/mL
bioavailability [8]: 97%
Kp [9]: 1.7
Cmax [10]: 1490 ng/mL
pKi [4]: 6.34
pKi [11]: 6.34
pIC50 [12]: 8.19
IC90 ([12]; Human immunodeficiency virus 1): 60 nM
pIC50 [13]: 7.57
IC90 ([13]; Human immunodeficiency virus 1): > 1000 nM
pIC50 [14]: 8.49
IC90 ([14]; Human immunodeficiency virus 1): 24 nM
pIC50 [15]: 9.70
IC90 ([15]; Human immunodeficiency virus 1): 3 nM
pIC50 [16]: 6.70
IC90 ([16]; Human immunodeficiency virus 1): > 1000 nM
pIC50 [17]: 6.78
IC90 ([17]; Human immunodeficiency virus 1): > 300 nM
pIC50 [18]: 9.15
IC90 ([18]; Human immunodeficiency virus 1): 4 nM
pIC50 [19]: 8.64
IC90 ([19]; Human immunodeficiency virus 1): 8 nM
pIC50 [5]: 9.30
pIC50 [20]: 8.15
IC90 ([20]; Human immunodeficiency virus 1): 17 nM
pIC50 [21]: 8.89
IC90 ([21]; Human immunodeficiency virus 1): 100 nM

Cc1cc[n+]([O-])c(C)c1C(=O)N1CCC(C)(N2CCN([C@@H](C)c3ccc(C(F)(F)F)cc3)[C@@H](C)C2)CC1
pIC50 [1]: 10.00
pKi [22]: 6.46
Dose [23]: 30 mg/kg
Dose [24]: 10 mg/kg
pIC50 [25]: 8.70

C[C@H]1CN(C2(C)CCN(C(=O)c3c(Cl)c[n+]([O-])cc3Cl)CC2)CCN1[C@@H](C)c1ccc(C(F)(F)F)cc1
pKi [2]: 8.57
pKi [4]: 6.46
pIC50 [5]: 9.35

Cc1nc(C(F)(F)F)nc(C)c1C(=O)N1CCC(C)(N2CCN([C@@H](C)c3ccc(C(F)(F)F)cc3)[C@@H](C)C2)CC1
pKi [2]: 8.00
pKi [4]: 6.21
pIC50 [5]: 10.00

Cc1nc(C)c(C(=O)N2CCC(C)(N3CCN([C@@H](C)c4ccc(C(F)(F)F)cc4)[C@@H](C)C3)CC2)c(C)n1
pKi [2]: 8.00
pKi [4]: 6.01
pIC50 [5]: 8.84

Cc1nc(-c2ccccc2)nc(C)c1C(=O)N1CCC(C)(N2CCN([C@@H](C)c3ccc(C(F)(F)F)cc3)[C@@H](C)C2)CC1
pKi [2]: 7.92
pKi [4]: 5.91
pIC50 [5]: 8.74

Cc1ncnc(C)c1C(=O)N1CCC(C)(N2CCN([C@@H](C)c3ccc(C#N)cc3)[C@@H](C)C2)CC1
pKi [2]: 7.70
pKi [4]: 6.79
pIC50 [5]: 8.74

Cc1ncnc(C)c1C(=O)N1CCC(C)(N2CCN([C@@H](C)c3ccc(OC(F)(F)F)cc3)[C@@H](C)C2)CC1
pKi [2]: 7.96
pKi [4]: 7.17
pIC50 [5]: 8.92

Cc1ncnc(C)c1C(=O)N1CCC(C)(N2CCN([C@@H](C)c3ccc(I)cc3)[C@@H](C)C2)CC1
pKi [2]: 7.96
pKi [4]: 6.77
